# Patent EP0013144A1, “Substituted diphenylamine derivatives, compositions and herbicidal uses thereof, and processes for their preparation” (ICI AUSTRALIA LIMITED, priority 1978, dated 1980)
# Test system: Ipomea purpurea
# Experiment: Pre-emergence herbicidal test, fibre trays (Example 33)
# Assay type: in vivo
# Settings: 1.0 kg/ha, after 21 days
# How it was run: (§1)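 Herbicidal damage is rated relative to untreated plants on a 0 (0–20%) to 5 (complete kill) scale. Young potted plants are sprayed and assessed at 14 days; seeds sown in fibre trays receive a soil-surface spray under a thin fresh soil layer and are assessed at 21 days.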
row,SMILES,"herbicidal damage, Ip"
1,COC(=O)C(C)Oc1ccc(Nc2ccc(Cl)cc2[N+](=O)[O-])cc1 (centres unmarked) [Compound 28],0 (0 is 0 to 20% damage)

# Same assay, conditions: 2.0 kg/ha, after 21 days
row,SMILES,"herbicidal damage, Ip"
1,"COC(=O)C(C)Oc1ccc(N(C)c2ccc(Cl)cc2Cl)cc1 (centres unmarked) [Compound 1, Methyl 2-[4-(2,4-dichloro-N-methylanilino)phenoxy]-propionate]",0 (0 is 0 to 20% damage)

# Test system: Amaranthus retroflexus
# Experiment: as above
# Assay type: in vivo
# Settings: 1.0 kg/ha, after 21 days
# How it was run: as §1
row,SMILES,"herbicidal damage, Am"
1,COC(=O)C(C)Oc1ccc(Nc2ccc(Cl)cc2[N+](=O)[O-])cc1 (centres unmarked) [Compound 28],0 (0 is 0 to 20% damage)

# Test system: Senecio vulgaris
# Experiment: as above
# Assay type: in vivo
# Settings: 1.0 kg/ha, after 21 days
# How it was run: as §1
row,SMILES,"herbicidal damage, Sn"
1,COC(=O)C(C)Oc1ccc(Nc2ccc(Cl)cc2[N+](=O)[O-])cc1 (centres unmarked) [Compound 28],0 (0 is 0 to 20% damage)

# Same assay, conditions: 2.0 kg/ha, after 21 days
row,SMILES,"herbicidal damage, Sn"
1,"COC(=O)C(C)Oc1ccc(N(C)c2ccc(Cl)cc2Cl)cc1 (centres unmarked) [Compound 1, Methyl 2-[4-(2,4-dichloro-N-methylanilino)phenoxy]-propionate]",0 (0 is 0 to 20% damage)

# Test system: Polygonum aviculare
# Experiment: as above
# Assay type: in vivo
# Settings: 1.0 kg/ha, after 21 days
# How it was run: as §1
row,SMILES,"herbicidal damage, Pi"
1,COC(=O)C(C)Oc1ccc(Nc2ccc(Cl)cc2[N+](=O)[O-])cc1 (centres unmarked) [Compound 28],0 (0 is 0 to 20% damage)

# Test system: Mustard
# Experiment: Pre-emergence herbicidal activity (Example 31)
# Assay type: in vivo
# Settings: 1 kg/ha, after three weeks
# How it was run: (§2)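 Ratings run from 0 (0–25% damage) to 3 (75–99% kill), with 3+ meaning complete kill, assessed visually three weeks after spraying. Treatment was applied to soil right after sowing, before germination was triggered by overhead watering in the glasshouse.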
row,SMILES,"damage to plants, Ms"
1,"COC(=O)C(C)Oc1ccc(N(C)c2ccc(Cl)cc2Cl)cc1 (centres unmarked) [Compound 1, Methyl 2-[4-(2,4-dichloro-N-methylanilino)phenoxy]-propionate]",0 (0 represents from 0 to 25% damage)
2,COC(=O)C(C)Oc1ccc(Nc2ccc(Cl)cc2[N+](=O)[O-])cc1 (centres unmarked) [Compound 28],0 (0 represents from 0 to 25% damage)

# Same assay, conditions: 5 kg/ha, after three weeks
row,SMILES,"damage to plants, Ms"
1,"COC(=O)C(C)Oc1ccc(N(C)c2ccc(Cl)cc2Cl)cc1 (centres unmarked) [Compound 1, Methyl 2-[4-(2,4-dichloro-N-methylanilino)phenoxy]-propionate]",0 (0 represents from 0 to 25% damage)
2,COC(=O)C(C)Oc1ccc(Nc2ccc(Cl)cc2[N+](=O)[O-])cc1 (centres unmarked) [Compound 28],0 (0 represents from 0 to 25% damage)

# Test system: Japanese millet
# Experiment: Pre-emergence herbicidal activity (Example 31)
# Assay type: in vivo
# Settings: 1 kg/ha, after three weeks
# How it was run: as §2
row,SMILES,"damage to plants, Jm"
1,"COC(=O)C(C)Oc1ccc(N(C)c2ccc(Cl)cc2Cl)cc1 (centres unmarked) [Compound 1, Methyl 2-[4-(2,4-dichloro-N-methylanilino)phenoxy]-propionate]",0 (0 represents from 0 to 25% damage)
2,COC(=O)C(C)Oc1ccc(Nc2ccc(Cl)cc2[N+](=O)[O-])cc1 (centres unmarked) [Compound 28],3+ (3+ represents 100% kill)

# Same assay, conditions: 5 kg/ha, after three weeks
row,SMILES,"damage to plants, Jm"
1,"COC(=O)C(C)Oc1ccc(N(C)c2ccc(Cl)cc2Cl)cc1 (centres unmarked) [Compound 1, Methyl 2-[4-(2,4-dichloro-N-methylanilino)phenoxy]-propionate]",0 (0 represents from 0 to 25% damage)
2,COC(=O)C(C)Oc1ccc(Nc2ccc(Cl)cc2[N+](=O)[O-])cc1 (centres unmarked) [Compound 28],3+ (3+ represents 100% kill)

# Test system: Sunflower
# Experiment: Pre-emergence herbicidal activity (Example 31)
# Assay type: in vivo
# Settings: 1 kg/ha, after three weeks
# How it was run: as §2
row,SMILES,"damage to plants, Sf"
1,"COC(=O)C(C)Oc1ccc(N(C)c2ccc(Cl)cc2Cl)cc1 (centres unmarked) [Compound 1, Methyl 2-[4-(2,4-dichloro-N-methylanilino)phenoxy]-propionate]",0 (0 represents from 0 to 25% damage)
2,COC(=O)C(C)Oc1ccc(Nc2ccc(Cl)cc2[N+](=O)[O-])cc1 (centres unmarked) [Compound 28],0 (0 represents from 0 to 25% damage)

# Same assay, conditions: 5 kg/ha, after three weeks
row,SMILES,"damage to plants, Sf"
1,"COC(=O)C(C)Oc1ccc(N(C)c2ccc(Cl)cc2Cl)cc1 (centres unmarked) [Compound 1, Methyl 2-[4-(2,4-dichloro-N-methylanilino)phenoxy]-propionate]",0 (0 represents from 0 to 25% damage)
2,COC(=O)C(C)Oc1ccc(Nc2ccc(Cl)cc2[N+](=O)[O-])cc1 (centres unmarked) [Compound 28],0 (0 represents from 0 to 25% damage)

# Test system: Wild Oats
# Experiment: Pre-emergence herbicidal activity (Example 31)
# Assay type: in vivo
# Settings: 1 kg/ha, after three weeks
# How it was run: as §2
row,SMILES,"damage to plants, Ot"
1,"COC(=O)C(C)Oc1ccc(N(C)c2ccc(Cl)cc2Cl)cc1 (centres unmarked) [Compound 1, Methyl 2-[4-(2,4-dichloro-N-methylanilino)phenoxy]-propionate]",0 (0 represents from 0 to 25% damage)
2,COC(=O)C(C)Oc1ccc(Nc2ccc(Cl)cc2[N+](=O)[O-])cc1 (centres unmarked) [Compound 28],2

# Same assay, conditions: 5 kg/ha, after three weeks
row,SMILES,"damage to plants, Ot"
1,"COC(=O)C(C)Oc1ccc(N(C)c2ccc(Cl)cc2Cl)cc1 (centres unmarked) [Compound 1, Methyl 2-[4-(2,4-dichloro-N-methylanilino)phenoxy]-propionate]",0 (0 represents from 0 to 25% damage)
2,COC(=O)C(C)Oc1ccc(Nc2ccc(Cl)cc2[N+](=O)[O-])cc1 (centres unmarked) [Compound 28],3+ (3+ represents 100% kill)

# Test system: Ipomea
# Experiment: Pre-emergence herbicidal activity (Example 31)
# Assay type: in vivo
# Settings: 1 kg/ha, after three weeks
# How it was run: as §2
row,SMILES,"damage to plants, Ip"
1,"COC(=O)C(C)Oc1ccc(N(C)c2ccc(Cl)cc2Cl)cc1 (centres unmarked) [Compound 1, Methyl 2-[4-(2,4-dichloro-N-methylanilino)phenoxy]-propionate]",0 (0 represents from 0 to 25% damage)
2,COC(=O)C(C)Oc1ccc(Nc2ccc(Cl)cc2[N+](=O)[O-])cc1 (centres unmarked) [Compound 28],0 (0 represents from 0 to 25% damage)

# Same assay, conditions: 5 kg/ha, after three weeks
row,SMILES,"damage to plants, Ip"
1,"COC(=O)C(C)Oc1ccc(N(C)c2ccc(Cl)cc2Cl)cc1 (centres unmarked) [Compound 1, Methyl 2-[4-(2,4-dichloro-N-methylanilino)phenoxy]-propionate]",0 (0 represents from 0 to 25% damage)
2,COC(=O)C(C)Oc1ccc(Nc2ccc(Cl)cc2[N+](=O)[O-])cc1 (centres unmarked) [Compound 28],0 (0 represents from 0 to 25% damage)

# Test system: Maize
# Experiment: Post-emergence herbicidal test, young pot plants (Example 33)
# Assay type: in vivo
# Parameters: key: 0 is 0 to 20% damage; 5 is complete kill
# Settings: 1.0 kg/ha, after 14 days
# Experimental: (§3) The compounds were formulated for test by mixing an appropriate amount with 5 ml of an emulsion prepared by diluting 160 ml of a solution containing 21.S g per litre of "Span" 80 and 78.2 g per litre of "Tween" 20 in methylcyclohexanone to 500 ml with water. "Span" 80 is a Trade Mark for a surface-active agent comprising sorbitan monolaurate. "Tween" 20 is a Trade Mark for a surface-active agent comprising a condensate of sorbitan monolaurate with 20 molar proportions of ethylene oxide. Each 5 ml emulsion containing a test compound was'then diluted to 40 ml with water and sprayed on to young pot plants (post-emergence test) of the species named in Table 5 below. Damage to test plants was assessed after 14 days on a scale of 0 to 5 where 0 is 0 to 20% damage and 5 is complete kill. In a test for pre-emergence herbicidal activity, seeds of the test plants were sown in a shallow slit formed in the surface of soil in fibre trays. The surface was then levelled and sprayed, and fresh soil then spread thinly over the sprayed surface. Assessment of herbicidal damage was carried out after 21 days using the same scale of 0 to 5 as the post-emergence test. In both cases the degree of herbicidal damage was assessed by comparison with untreated control plants. A dash (-) means that no experiment was carried out.
row,SMILES,"damage to test plants, Mz"
1,COC(=O)C(C)Oc1ccc(Nc2ccc(Cl)cc2[N+](=O)[O-])cc1 (centres unmarked) [Compound 28],5

# Same assay, conditions: 2.0 kg/ha, after 14 days
row,SMILES,"damage to test plants, Mz"
1,"COC(=O)C(C)Oc1ccc(N(C)c2ccc(Cl)cc2Cl)cc1 (centres unmarked) [Compound 1, Methyl 2-[4-(2,4-dichloro-N-methylanilino)phenoxy]-propionate]",5

# Test system: Rice
# Experiment: as above
# Assay type: in vivo
# Parameters: key: 0 is 0 to 20% damage; 5 is complete kill
# Settings: 1.0 kg/ha, after 14 days
# Experimental: as §3
row,SMILES,"damage to test plants, Rc"
1,COC(=O)C(C)Oc1ccc(Nc2ccc(Cl)cc2[N+](=O)[O-])cc1 (centres unmarked) [Compound 28],4

# Same assay, conditions: 2.0 kg/ha, after 14 days
row,SMILES,"damage to test plants, Rc"
1,"COC(=O)C(C)Oc1ccc(N(C)c2ccc(Cl)cc2Cl)cc1 (centres unmarked) [Compound 1, Methyl 2-[4-(2,4-dichloro-N-methylanilino)phenoxy]-propionate]",0 (0 is 0 to 20% damage)

# Test system: Rape
# Experiment: as above
# Assay type: in vivo
# Settings: 2.0 kg/ha, after 14 days
# How it was run: as §1
row,SMILES,"damage to test plants, Rp"
1,"COC(=O)C(C)Oc1ccc(N(C)c2ccc(Cl)cc2Cl)cc1 (centres unmarked) [Compound 1, Methyl 2-[4-(2,4-dichloro-N-methylanilino)phenoxy]-propionate]",2

# Test system: Senecio vulgaris
# Experiment: as above
# Assay type: in vivo
# Settings: 1.0 kg/ha, after 14 days
# How it was run: as §1
row,SMILES,"damage to test plants, Sn"
1,COC(=O)C(C)Oc1ccc(Nc2ccc(Cl)cc2[N+](=O)[O-])cc1 (centres unmarked) [Compound 28],0 (0 is 0 to 20% damage)

# Same assay, conditions: 2.0 kg/ha, after 14 days
row,SMILES,"damage to test plants, Sn"
1,"COC(=O)C(C)Oc1ccc(N(C)c2ccc(Cl)cc2Cl)cc1 (centres unmarked) [Compound 1, Methyl 2-[4-(2,4-dichloro-N-methylanilino)phenoxy]-propionate]",1

# Test system: Polygonum aviculare
# Experiment: as above
# Assay type: in vivo
# Settings: 2.0 kg/ha, after 14 days
# How it was run: as §1
row,SMILES,"damage to test plants, Pi"
1,"COC(=O)C(C)Oc1ccc(N(C)c2ccc(Cl)cc2Cl)cc1 (centres unmarked) [Compound 1, Methyl 2-[4-(2,4-dichloro-N-methylanilino)phenoxy]-propionate]",0 (0 is 0 to 20% damage)

# Test system: Wheat
# Experiment: Pre-emergence herbicidal activity (Example 31)
# Assay type: in vivo
# Parameters: key: 0-3 scale: 0 = 0-25% damage, 3 = 75-99% kill, 3+ = 100% kill
# Settings: 1 kg/ha, after three weeks
# How it was run: as §2
row,SMILES,"damage to plants, Wh"
1,"COC(=O)C(C)Oc1ccc(N(C)c2ccc(Cl)cc2Cl)cc1 (centres unmarked) [Compound 1, Methyl 2-[4-(2,4-dichloro-N-methylanilino)phenoxy]-propionate]",0 (0 represents from 0 to 25% damage)
2,COC(=O)C(C)Oc1ccc(Nc2ccc(Cl)cc2[N+](=O)[O-])cc1 (centres unmarked) [Compound 28],0 (0 represents from 0 to 25% damage)

# Same assay, conditions: 5 kg/ha, after three weeks
row,SMILES,"damage to plants, Wh"
1,"COC(=O)C(C)Oc1ccc(N(C)c2ccc(Cl)cc2Cl)cc1 (centres unmarked) [Compound 1, Methyl 2-[4-(2,4-dichloro-N-methylanilino)phenoxy]-propionate]",0 (0 represents from 0 to 25% damage)
2,COC(=O)C(C)Oc1ccc(Nc2ccc(Cl)cc2[N+](=O)[O-])cc1 (centres unmarked) [Compound 28],2
